Key:
obese dogs [1] = experiment: Clinical trial in obese dogs: urine test strips, urinary glucose excretion; format: in vivo
Experimental: (§1) A total of 20 dogs were selected and divided into 4 groups with 5 dogs in each group: a normal obese control (OC); hereinafter, referred to as a control (OC)), an enavogliflozin 0.2-administered group, an enavogliflozin 0.5-administered group, and an enavogliflozin 1-administered group. The control was fed regular feed, and the enavogliflozin-administered groups were fed regular feed supplemented with enavogliflozin at doses of 0.2, 0.5, or 1 mg/kg, respectively. The feed was supplemented with enavogliflozin once a day for 8 weeks and given orally.
Serum insulin concentrations were measured 2, 4, 6, 8, and 10 weeks after the start of enavogliflozin administration using a Quantikine Canine Insulin ELISA kit (Catalog no. DINS00, R&D Systems, Minneapolis, MN, USA) according to the manufacturer's protocol. […]

obese dogs [2] = experiment: Clinical trial in obese dogs: serum biochemical parameters; format: in vivo; conditions: for ALB / ALP / ALT / AST / BUN / CPK / CRE / GGT / Glu / TC / TP / TG: serum
Experimental: as §1
Biological analysis was performed as follows. A portion of the blood collected on the day of the test was transferred to a vacuum tube containing a coagulation activator, left at room temperature for 15 to 20 minutes to solidify, and then centrifuged at 3000 rpm, thereby obtaining serum. Serum biochemical parameters were evaluated using a Hitachi 7180 device (Hitachi, Tokyo, Japan). The evaluated biochemical parameters are aspartate aminotransferase (AST), alanine aminotransferase (ALT), alkaline phosphatase (ALP), creatine phosphokinase (CPK), total bilirubin (TBIL), glucose (GLU), total cholesterol (TC), triglycerides (TG), total protein (TP), albumin (ALB), gamma-glutamyl transpeptidase (GGT), blood urea nitrogen (BUN), creatinine (CRE), inorganic phosphorus (IP), calcium (Ca), and C-reactive protein (CRP).

[3] = 0.2 mg/kg once a day oral for 8 weeks, 10 weeks
[4] = 0.2 mg/kg once a day oral, 2 weeks
[5] = 0.2 mg/kg once a day oral, 4 weeks
[6] = 0.2 mg/kg once a day oral, 6 weeks
[7] = 0.2 mg/kg once a day oral, 8 weeks
[8] = 0.5 mg/kg once a day oral for 8 weeks, 10 weeks
[9] = 0.5 mg/kg once a day oral, 2 weeks
[10] = 0.5 mg/kg once a day oral, 4 weeks
[11] = 0.5 mg/kg once a day oral, 6 weeks
[12] = 0.5 mg/kg once a day oral, 8 weeks
[13] = 1 mg/kg once a day oral for 8 weeks, 10 weeks
[14] = 1 mg/kg once a day oral, 2 weeks
[15] = 1 mg/kg once a day oral, 4 weeks
[16] = 1 mg/kg once a day oral, 6 weeks
[17] = 1 mg/kg once a day oral, 8 weeks
[18] = obese dogs, 0.2 mg/kg once a day oral for 8 weeks
[19] = obese dogs, 0.5 mg/kg once a day oral for 8 weeks
[20] = obese dogs, 1 mg/kg once a day oral for 8 weeks

OC[C@H]1O[C@@H](c2cc(Cc3ccc(C4CC4)cc3)c(Cl)c3c2CCO3)[C@H](O)[C@@H](O)[C@@H]1O [Enavogliflozin, enavogliflozin]
Urine test - Glucose detection: number of dogs with grade +++, 3 (obese dogs [1]; [3]): 2
Urine test - Glucose detection: number of dogs with grade +++, 4 (obese dogs [1]; [3]): 1
Urine test - Glucose detection: number of dogs with grade ++, 2 (obese dogs [1]; [3]): 1
Urine test - Glucose detection: number of dogs with grade +, 1 (obese dogs [1]; [3]): 1
Urine test - Glucose detection: number of dogs with grade −, 0 (obese dogs [1]; [3]): 0
Urine test - Glucose detection: number of dogs with grade +++, 3 (obese dogs [1]; [4]): 1
Urine test - Glucose detection: number of dogs with grade +++, 4 (obese dogs [1]; [4]): 1
Urine test - Glucose detection: number of dogs with grade ++, 2 (obese dogs [1]; [4]): 0
Urine test - Glucose detection: number of dogs with grade +, 1 (obese dogs [1]; [4]): 3
Urine test - Glucose detection: number of dogs with grade −, 0 (obese dogs [1]; [4]): 0
Urine test - Glucose detection: number of dogs with grade +++, 3 (obese dogs [1]; [5]): 1
Urine test - Glucose detection: number of dogs with grade +++, 4 (obese dogs [1]; [5]): 1
Urine test - Glucose detection: number of dogs with grade ++, 2 (obese dogs [1]; [5]): 1
Urine test - Glucose detection: number of dogs with grade +, 1 (obese dogs [1]; [5]): 2
Urine test - Glucose detection: number of dogs with grade −, 0 (obese dogs [1]; [5]): 0
Urine test - Glucose detection: number of dogs with grade +++, 3 (obese dogs [1]; [6]): 1
Urine test - Glucose detection: number of dogs with grade +++, 4 (obese dogs [1]; [6]): 1
Urine test - Glucose detection: number of dogs with grade ++, 2 (obese dogs [1]; [6]): 0
Urine test - Glucose detection: number of dogs with grade +, 1 (obese dogs [1]; [6]): 3
Urine test - Glucose detection: number of dogs with grade −, 0 (obese dogs [1]; [6]): 0
Urine test - Glucose detection: number of dogs with grade +++, 3 (obese dogs [1]; [7]): 1
Urine test - Glucose detection: number of dogs with grade +++, 4 (obese dogs [1]; [7]): 1
Urine test - Glucose detection: number of dogs with grade ++, 2 (obese dogs [1]; [7]): 2
Urine test - Glucose detection: number of dogs with grade +, 1 (obese dogs [1]; [7]): 1
Urine test - Glucose detection: number of dogs with grade −, 0 (obese dogs [1]; [7]): 0
Urine test - Glucose detection: number of dogs with grade +++, 3 (obese dogs [1]; [8]): 1
Urine test - Glucose detection: number of dogs with grade +++, 4 (obese dogs [1]; [8]): 1
Urine test - Glucose detection: number of dogs with grade ++, 2 (obese dogs [1]; [8]): 1
Urine test - Glucose detection: number of dogs with grade +, 1 (obese dogs [1]; [8]): 1
Urine test - Glucose detection: number of dogs with grade −, 0 (obese dogs [1]; [8]): 1
Urine test - Glucose detection: number of dogs with grade +++, 3 (obese dogs [1]; [9]): 0
Urine test - Glucose detection: number of dogs with grade +++, 4 (obese dogs [1]; [9]): 3
Urine test - Glucose detection: number of dogs with grade ++, 2 (obese dogs [1]; [9]): 1
Urine test - Glucose detection: number of dogs with grade +, 1 (obese dogs [1]; [9]): 1
Urine test - Glucose detection: number of dogs with grade −, 0 (obese dogs [1]; [9]): 0
Urine test - Glucose detection: number of dogs with grade +++, 3 (obese dogs [1]; [10]): 0
Urine test - Glucose detection: number of dogs with grade +++, 4 (obese dogs [1]; [10]): 5
Urine test - Glucose detection: number of dogs with grade ++, 2 (obese dogs [1]; [10]): 0
Urine test - Glucose detection: number of dogs with grade +, 1 (obese dogs [1]; [10]): 0
Urine test - Glucose detection: number of dogs with grade −, 0 (obese dogs [1]; [10]): 0
Urine test - Glucose detection: number of dogs with grade +++, 3 (obese dogs [1]; [11]): 0
Urine test - Glucose detection: number of dogs with grade +++, 4 (obese dogs [1]; [11]): 5
Urine test - Glucose detection: number of dogs with grade ++, 2 (obese dogs [1]; [11]): 0
Urine test - Glucose detection: number of dogs with grade +, 1 (obese dogs [1]; [11]): 0
Urine test - Glucose detection: number of dogs with grade −, 0 (obese dogs [1]; [11]): 0
Urine test - Glucose detection: number of dogs with grade +++, 3 (obese dogs [1]; [12]): 0
Urine test - Glucose detection: number of dogs with grade +++, 4 (obese dogs [1]; [12]): 4
Urine test - Glucose detection: number of dogs with grade ++, 2 (obese dogs [1]; [12]): 1
Urine test - Glucose detection: number of dogs with grade +, 1 (obese dogs [1]; [12]): 0
Urine test - Glucose detection: number of dogs with grade −, 0 (obese dogs [1]; [12]): 0
Urine test - Glucose detection: number of dogs with grade +++, 3 (obese dogs [1]; [13]): 1
Urine test - Glucose detection: number of dogs with grade +++, 4 (obese dogs [1]; [13]): 1
Urine test - Glucose detection: number of dogs with grade ++, 2 (obese dogs [1]; [13]): 0
Urine test - Glucose detection: number of dogs with grade +, 1 (obese dogs [1]; [13]): 0
Urine test - Glucose detection: number of dogs with grade −, 0 (obese dogs [1]; [13]): 3
Urine test - Glucose detection: number of dogs with grade +++, 3 (obese dogs [1]; [14]): 2
Urine test - Glucose detection: number of dogs with grade +++, 4 (obese dogs [1]; [14]): 3
Urine test - Glucose detection: number of dogs with grade ++, 2 (obese dogs [1]; [14]): 0
Urine test - Glucose detection: number of dogs with grade +, 1 (obese dogs [1]; [14]): 0
Urine test - Glucose detection: number of dogs with grade −, 0 (obese dogs [1]; [14]): 0
Urine test - Glucose detection: number of dogs with grade +++, 3 (obese dogs [1]; [15]): 0
Urine test - Glucose detection: number of dogs with grade +++, 4 (obese dogs [1]; [15]): 5
Urine test - Glucose detection: number of dogs with grade ++, 2 (obese dogs [1]; [15]): 0
Urine test - Glucose detection: number of dogs with grade +, 1 (obese dogs [1]; [15]): 0
Urine test - Glucose detection: number of dogs with grade −, 0 (obese dogs [1]; [15]): 0
Urine test - Glucose detection: number of dogs with grade +++, 3 (obese dogs [1]; [16]): 0
Urine test - Glucose detection: number of dogs with grade +++, 4 (obese dogs [1]; [16]): 5
Urine test - Glucose detection: number of dogs with grade ++, 2 (obese dogs [1]; [16]): 0
Urine test - Glucose detection: number of dogs with grade +, 1 (obese dogs [1]; [16]): 0
Urine test - Glucose detection: number of dogs with grade −, 0 (obese dogs [1]; [16]): 0
Urine test - Glucose detection: number of dogs with grade +++, 3 (obese dogs [1]; [17]): 1
Urine test - Glucose detection: number of dogs with grade +++, 4 (obese dogs [1]; [17]): 5
Urine test - Glucose detection: number of dogs with grade ++, 2 (obese dogs [1]; [17]): 0
Urine test - Glucose detection: number of dogs with grade +, 1 (obese dogs [1]; [17]): 0
Urine test - Glucose detection: number of dogs with grade −, 0 (obese dogs [1]; [17]): 0
Urinary glucose (GLU) excretion (obese dogs [1]; enavogliflozin-administered groups, particularly 0.2 mg/kg): higher
C-reactive protein (CRP) compared to the control (OC) (obese dogs [2]; obese dogs, 0.2 mg/kg): significantly decreased
alanine aminotransferase (ALT) compared to the control (OC) (obese dogs [2]; obese dogs, 0.2 mg/kg): significantly decreased
alkaline phosphatase (ALP) compared to the control (OC) (obese dogs [2]; obese dogs, 0.2 mg/kg): significantly decreased
creatine phosphokinase (CPK) compared to the control (OC) (obese dogs [2]; obese dogs, 0.2 mg/kg): significantly decreased
serum gamma-glutamyl transpeptidase (GGT) compared to the control (OC) (obese dogs [2]; obese dogs, 0.2 mg/kg): significantly decreased
serum total cholesterol (TC) compared to the control (OC) (obese dogs [2]; obese dogs, 0.2 mg/kg): lower than those of the control (OC)
triglyceride (TG) concentration compared to the control (OC) (obese dogs [2]; obese dogs, 0.2 mg/kg): lower than those of the control (OC)
glucose (GLU) concentration compared to the control (OC) (obese dogs [2]; obese dogs, 1 mg/kg): significantly lower
serum triglyceride (TG) concentrations compared to the control (obese dogs [2]; obese dogs, 0.2, 0.5 and 1 mg/kg groups): significantly lower than that of the control
fasting glucose compared to the control (OC) (obese dogs [2]; obese dogs, all administration groups): decreased compared to the control (OC)
ALB (obese dogs [2]; [18]): 3.48 ± 0.42 g/dL
ALP (obese dogs [2]; [18]): 84.60 ± 63.96 IU/L
ALT (obese dogs [2]; [18]): 18.84 ± 4.00 IU/L
AST (obese dogs [2]; [18]): 31.00 ± 1.83 IU/L
BUN (obese dogs [2]; [18]): 18.70 ± 10.29 mg/dL
CPK (obese dogs [2]; [18]): 111.12 ± 30.97 IU/L
CRE (obese dogs [2]; [18]): 0.78 ± 0.21 mg/dL
GGT (obese dogs [2]; [18]): 7.80 ± 1.64 IU/L
Glu (obese dogs [2]; [18]): 107.20 ± 10.85 mg/dL
TC (obese dogs [2]; [18]): 183.84 ± 36.01 mg/dL
TP (obese dogs [2]; [18]): 6.78 ± 0.66 g/dL
TG (obese dogs [2]; obese dogs, 0.2 mg/kg once a day oral for 8 weeks, 0.2 mg/kg): 142.00 ± 95.55 mg/dL
TG (obese dogs [2]; obese dogs, 0.2 mg/kg once a day oral for 8 weeks, listed as enavogliflozin, 0.2 mg/kg): 142.00 ± 95.55 mg/dL
ALB (obese dogs [2]; [19]): 2.95 ± 0.19 g/dL
ALP (obese dogs [2]; [19]): 146.20 ± 121.67 IU/L
ALT (obese dogs [2]; [19]): 36.80 ± 14.43 IU/L
AST (obese dogs [2]; [19]): 31.84 ± 12.92 IU/L
BUN (obese dogs [2]; [19]): 22.25 ± 8.64 mg/dL
CPK (obese dogs [2]; [19]): 136.50 ± 42.99 IU/L
CRE (obese dogs [2]; [19]): 0.82 ± 0.15 mg/dL
GGT (obese dogs [2]; [19]): 9.46 ± 5.37 IU/L
Glu (obese dogs [2]; [19]): 97.77 ± 10.19 mg/dL
TC (obese dogs [2]; [19]): 298.00 ± 71.14 mg/dL
TP (obese dogs [2]; [19]): 6.43 ± 0.32 g/dL
TG (obese dogs [2]; obese dogs, 0.5 mg/kg once a day oral for 8 weeks, 0.5 mg/kg): 133.86 ± 70.19 mg/dL
TG (obese dogs [2]; obese dogs, 0.5 mg/kg once a day oral for 8 weeks, listed as enavogliflozin, 0.5 mg/kg): 133.86 ± 70.19 mg/dL
ALB (obese dogs [2]; [20]): 2.92 ± 0.29 g/dL
ALP (obese dogs [2]; [20]): 186.20 ± 184.59 IU/L
ALT (obese dogs [2]; [20]): 38.60 ± 19.72 IU/L
AST (obese dogs [2]; [20]): 110.00 ± 167.92 IU/L
BUN (obese dogs [2]; [20]): 23.44 ± 13.17 mg/dL
CPK (obese dogs [2]; [20]): 260.40 ± 126.79 IU/L
CRE (obese dogs [2]; [20]): 0.92 ± 0.36 mg/dL
GGT (obese dogs [2]; [20]): 21.60 ± 29.36 IU/L
Glu (obese dogs [2]; [20]): 94.00 ± 13.47 mg/dL
TC (obese dogs [2]; [20]): 309.00 ± 129.40 mg/dL
TP (obese dogs [2]; [20]): 6.14 ± 0.54 g/dL
TG (obese dogs [2]; obese dogs, 1 mg/kg once a day oral for 8 weeks, 1 mg/kg): 282.60 ± 419.03 mg/dL
TG (obese dogs [2]; obese dogs, 1 mg/kg once a day oral for 8 weeks, listed as enavogliflozin, 1 mg/kg): 282.60 ± 419.03 mg/dL
